From publication PMC7125560 (Bioorganic & Medicinal Chemistry, 2007)

Assays:
SARS-CoV = conditions: read-out: EC50 (SARS-CoV); cited from earlier work
[1] = tested on: HCV subgenomic replicon RNA; assay: real-time RT-PCR quantification of replicon RNA; format: cell-based, hepatitis C virus (HCV); conditions: two-day incubation

Row | SMILES | EC50 (SARS-CoV) [µM] | replicon RNA amount ([1]; 12.5 μM) | replicon RNA amount ([1]; 25 μM) [%]
1 | OC[C@H]1C[C@@H](n2cnc3c(Cl)ncnc32)[C@@H]1CO [Compound 6] | > 300 | – | –
2 | O=C(OC[C@H]1O[C@@H](n2cnc3c(Cl)ncnc32)C[C@@H]1O)c1ccccc1 [Compound 10, 9-(5-O-benzoyl-β-D-2-deoxyribofuranosyl)-6-chloropurine] | – | approximately 45% | ~6
3 | O=C(OC[C@H]1C[C@@H](n2cnc3c(Cl)ncnc32)[C@@H]1CO)c1ccccc1 [Compound 5] | 14.5 | – | –
